Laboratory results: ChEMBL document CHEMBL1201862, “PubChem BioAssay data set” (2004)
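Method: 48-hour compound exposure of cells in 96-well plates, five concentrations, linear interpolation of endpoints. At the GI50, growth is halved.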 Activity calls are given as the source filed them. No stated cut-off is given here; in the data, active = GI50 up to about 1.1 µM and inactive = higher.

Assays:
Assay in all cases: NCI tumour cell line growth inhibition, 48 h
MDA-N = tested on: MDA-N
SK-MEL-2 = tested on: SK-MEL-2
SN12C = tested on: SN12C
MOLT-4 = tested on: MOLT-4
OVCAR-3 = tested on: OVCAR-3
Malme-3M = tested on: Malme-3M
SF-295 = tested on: SF-295
UACC-62 = tested on: UACC-62
SK-MEL-28 = tested on: SK-MEL-28
MDA-MB-231 = tested on: MDA-MB-231
IGROV-1 = tested on: IGROV-1
TK-10 = tested on: TK-10
PC-3 = tested on: PC-3
NCI-H460 = tested on: NCI-H460
DU-145 = tested on: DU-145
A498 = tested on: A498
UACC-257 = tested on: UACC-257
SF-539 = tested on: SF-539
SW-620 = tested on: SW-620
SNB-75 = tested on: SNB-75

SMILES	GI50 (MDA-N)	GI50 (SK-MEL-2)	GI50 (SN12C)	GI50 (MOLT-4)	GI50 (OVCAR-3)	GI50 (Malme-3M)	GI50 (SF-295)	GI50 (UACC-62)	GI50 (SK-MEL-28)	GI50 (MDA-MB-231)	GI50 (IGROV-1)	GI50 (TK-10)	GI50 (PC-3)	GI50 (NCI-H460)	GI50 (DU-145)	GI50 (A498)	GI50 (UACC-257)	GI50 (SF-539)	GI50 (SW-620)	GI50 (SNB-75)
CCn1c2ccccc2n2c(=O)c3c(c(C#N)c12)CCCC3	> 100 µM (inactive)	> 100 µM (inactive)	> 100 µM (inactive)	> 100 µM (inactive)	> 100 µM (inactive)	> 100 µM (inactive)	> 100 µM (inactive)	> 100 µM (inactive)	> 100 µM (inactive)	> 100 µM (inactive)	> 100 µM (inactive)	> 100 µM (inactive)	> 100 µM (inactive)	> 100 µM (inactive)	> 100 µM (inactive)	> 100 µM (inactive)	> 100 µM (inactive)	> 100 µM (inactive)	> 100 µM (inactive)	
Cc1cc(C)n2nc3nc(N)c(C#N)c(-c4ccccc4)c3c2n1	> 100 µM (inactive)	> 100 µM (inactive)	> 100 µM (inactive)	> 100 µM (inactive)	> 73.6 µM (inactive)	> 100 µM (inactive)	> 100 µM (inactive)	> 100 µM (inactive)	> 100 µM (inactive)	> 100 µM (inactive)	> 100 µM (inactive)	> 100 µM (inactive)	> 100 µM (inactive)	> 100 µM (inactive)	> 100 µM (inactive)	> 100 µM (inactive)	> 100 µM (inactive)	> 100 µM (inactive)	> 100 µM (inactive)	
N#Cc1nc2ccccc2nc1N1CCN(c2ccc([N+](=O)[O-])cc2)CC1	> 100 µM (inactive)	> 100 µM (inactive)	> 100 µM (inactive)	0.106 µM (active)		> 100 µM (inactive)	> 100 µM (inactive)	> 100 µM (inactive)	> 100 µM (inactive)	> 100 µM (inactive)	> 100 µM (inactive)	> 100 µM (inactive)	> 100 µM (inactive)	> 100 µM (inactive)	> 100 µM (inactive)	> 100 µM (inactive)	> 100 µM (inactive)		> 100 µM (inactive)	> 100 µM (inactive)
C=C1NC(=O)C(CC(C(=O)C(=O)Nc2c(C)cccc2C(C)(C)C)C(=O)c2ccc3ccccc3c2)C(=O)N1 (stereo not given)	> 100 µM (inactive)	> 100 µM (inactive)	> 100 µM (inactive)	> 100 µM (inactive)	> 100 µM (inactive)		> 100 µM (inactive)	> 100 µM (inactive)	> 100 µM (inactive)	> 100 µM (inactive)			> 100 µM (inactive)	> 100 µM (inactive)	> 100 µM (inactive)	> 100 µM (inactive)	> 100 µM (inactive)	> 100 µM (inactive)	> 100 µM (inactive)	> 100 µM (inactive)
O=C1CNc2cc(N3CCN(c4cccc(C(F)(F)F)c4)CC3)ccc2N1	84.5 µM (inactive)	0.755 µM (active)	> 100 µM (inactive)	28.7 µM (inactive)	27.5 µM (inactive)	14.2 µM (inactive)	24.3 µM (inactive)	35.1 µM (inactive)	68.5 µM (inactive)	> 100 µM (inactive)	30.8 µM (inactive)	69.2 µM (inactive)	44.4 µM (inactive)	53 µM (inactive)	> 100 µM (inactive)		37 µM (inactive)	57.3 µM (inactive)	51.2 µM (inactive)	84.7 µM (inactive)
CCc1n[nH]c(=O)n1/N=C(\C)c1ccc([N+](=O)[O-])cc1	> 100 µM (inactive)	> 100 µM (inactive)	54.7 µM (inactive)	> 100 µM (inactive)	> 100 µM (inactive)		> 100 µM (inactive)	> 100 µM (inactive)	> 100 µM (inactive)	19.7 µM (inactive)	82.6 µM (inactive)	> 100 µM (inactive)	> 100 µM (inactive)	46.2 µM (inactive)	27.5 µM (inactive)		> 100 µM (inactive)		94.2 µM (inactive)	
CC1(C)CC(=O)c2c(nc3c(ccc4ccccc43)c2-c2ccc(NC(=O)CCC(=O)Nc3ccc(-c4c5c(nc6c4ccc4ccccc46)CC(C)(C)CC5=O)cc3)cc2)C1	> 100 µM (inactive)	> 100 µM (inactive)	> 100 µM (inactive)	> 100 µM (inactive)	> 100 µM (inactive)		> 100 µM (inactive)	> 100 µM (inactive)	> 100 µM (inactive)	> 100 µM (inactive)	> 100 µM (inactive)	> 100 µM (inactive)	> 100 µM (inactive)	> 100 µM (inactive)	> 100 µM (inactive)		> 100 µM (inactive)	> 100 µM (inactive)	> 100 µM (inactive)	25 µM (inactive)
CCOC(=O)N1c2c(c3ccccc3n2C(=O)OCC)C(=O)C(OC)N1C(=O)OCC (stereo not given)	33.2 µM (inactive)	16 µM (inactive)	28.8 µM (inactive)	21.6 µM (inactive)	30.2 µM (inactive)	31.9 µM (inactive)	19.6 µM (inactive)	40.1 µM (inactive)	24.2 µM (inactive)	22.9 µM (inactive)	26.5 µM (inactive)	50.5 µM (inactive)	21.6 µM (inactive)	36.1 µM (inactive)	61.9 µM (inactive)	25.4 µM (inactive)	29.4 µM (inactive)	24.6 µM (inactive)	31.7 µM (inactive)	
